Data published in the NIST ThermoML archive (doi:10.1021/je060271a).

Settings: 283.15 K, Liquid, Vibrating tube method

CCCCCC(=O)OCC(COC(=O)CCCCC)(COC(=O)CCCCC)COC(=O)CCCCC [pentaerythritol tetrahexanoate]
Settings | mass density [kg/m3]
12947 kPa | 1011.7
12961 kPa | 1011.5
12978 kPa | 1011.5
12991 kPa | 1011.6
13005 kPa | 1011.6
13019 kPa | 1011.6
13036 kPa | 1011.6
13050 kPa | 1011.7
13064 kPa | 1011.4
13081 kPa | 1011.6
13095 kPa | 1011.5
13109 kPa | 1011.6
13126 kPa | 1011.7
13139 kPa | 1011.7
13156 kPa | 1011.7
13170 kPa | 1011.7
13185 kPa | 1011.7
13202 kPa | 1011.8
13216 kPa | 1011.7
13233 kPa | 1011.7
13247 kPa | 1011.7
13262 kPa | 1011.8
13276 kPa | 1011.9
13293 kPa | 1011.7
13308 kPa | 1011.8
13322 kPa | 1011.7
13340 kPa | 1011.8
13355 kPa | 1011.8
13372 kPa | 1011.8
13386 kPa | 1011.9
13401 kPa | 1011.8
13419 kPa | 1012
13434 kPa | 1011.8
13448 kPa | 1011.8
13466 kPa | 1011.8
13481 kPa | 1012
13496 kPa | 1011.9
13514 kPa | 1011.8
13529 kPa | 1011.9
13544 kPa | 1012
13559 kPa | 1012
13577 kPa | 1011.9
13592 kPa | 1011.9
13607 kPa | 1011.9
13625 kPa | 1011.8
13640 kPa | 1012
13655 kPa | 1012.1
13669 kPa | 1012
13687 kPa | 1012.1
13702 kPa | 1012
13716 kPa | 1011.8
13735 kPa | 1012
13750 kPa | 1011.9
13765 kPa | 1011.9
13782 kPa | 1012.1
13797 kPa | 1012.1
13810 kPa | 1012.1
13827 kPa | 1012.1
13842 kPa | 1011.9
13855 kPa | 1012
13870 kPa | 1012.1
13883 kPa | 1012.1
13894 kPa | 1012.1
13906 kPa | 1012
13920 kPa | 1012.1
13934 kPa | 1012.3
13949 kPa | 1012.2
13966 kPa | 1012.1
13981 kPa | 1012.1
13996 kPa | 1012.2
14013 kPa | 1012.1
14027 kPa | 1012.2
14042 kPa | 1012.1
14058 kPa | 1012.2
14073 kPa | 1012.3
14087 kPa | 1012.2
14104 kPa | 1012.2
14118 kPa | 1012.1
14133 kPa | 1012.2
14150 kPa | 1012.1
14164 kPa | 1012.3
14179 kPa | 1012.3
14196 kPa | 1012.2
14211 kPa | 1012.2
14225 kPa | 1012.2
14243 kPa | 1012.1
14257 kPa | 1012.3
14272 kPa | 1012.3
14289 kPa | 1012.3
14304 kPa | 1012.3
14320 kPa | 1012.4
14335 kPa | 1012.4
14350 kPa | 1012.3
14368 kPa | 1012.2
14382 kPa | 1012.4
14397 kPa | 1012.4
14415 kPa | 1012.6
14430 kPa | 1012.3
14448 kPa | 1012.4
14463 kPa | 1012.3
14478 kPa | 1012.3
14496 kPa | 1012.4
14511 kPa | 1012.4
14527 kPa | 1012.4
14542 kPa | 1012.5
14560 kPa | 1012.4
14575 kPa | 1012.4
14591 kPa | 1012.4
14609 kPa | 1012.6
14624 kPa | 1012.5
14640 kPa | 1012.4
14658 kPa | 1012.5
14674 kPa | 1012.5
14689 kPa | 1012.4
14708 kPa | 1012.4
14724 kPa | 1012.5
14739 kPa | 1012.5
14755 kPa | 1012.5
14774 kPa | 1012.5
14790 kPa | 1012.6
14805 kPa | 1012.6
14824 kPa | 1012.6
14840 kPa | 1012.7
14856 kPa | 1012.7
14875 kPa | 1012.6
14891 kPa | 1012.7
14907 kPa | 1012.7
14926 kPa | 1012.7
14942 kPa | 1012.6
14959 kPa | 1012.8
14974 kPa | 1012.7
14993 kPa | 1012.7
15008 kPa | 1012.6
15024 kPa | 1012.8
15042 kPa | 1012.7
15058 kPa | 1012.8
15074 kPa | 1012.7
15090 kPa | 1012.8
15108 kPa | 1012.8
15124 kPa | 1012.8
15140 kPa | 1012.8
15159 kPa | 1012.7
15175 kPa | 1012.9
15190 kPa | 1012.9
15209 kPa | 1012.8
